Experimental findings from patent US20100047839A1, “LATENT FLUORIMETRIC INDICATOR FOR BIOLOGICAL ANALYTES DETERMINATION AND THE PREPARATION METHOD THEREOF” (NATIONAL TAIPEI UNIVERSITY OF TECHNOLOGY, priority 2008, published 2010) are described below.

Holding throughout (type): biochemical
What all share (details): BQC 10 μM, λex 500 nm, λem 595 nm, 4 h, 37° C., pH 7.6, baseline subtracted

The target in assay [1] is T1, DT Diaphorase (Homo sapiens, UniProt P15559). Description: Oxygen-insensitive DTD-coupling enzyme assay for glucose-6-phosphate determination (glucose-6-phosphate dehydrogenase, phosphoglucomutase, NAD+, DT Diaphorase). The protocol: (§1) All the fluorimetric measurements carried out with an excitation wavelength of λex=500 nm and an emission wavelength of λem=595 nm. The solutions containing BQC (10 μM), DTD (1 unit), and the corresponding dehydrogenase (1 to 10 unit), NAD^+ (10 μM), and ethanol, 3-hydroxybutrate or glucose-6-phosphate (0 to 10 μM) in Tris-HCl buffer with a final volume of 1 mL were incubated for 4 h at 37° C. The fluorimetric intensity of each solution after subtracting the baseline intensity ([analytes]=0) was plotted versus the analytes concentration.
T1 sequence (P15559 whole entry, species assumed): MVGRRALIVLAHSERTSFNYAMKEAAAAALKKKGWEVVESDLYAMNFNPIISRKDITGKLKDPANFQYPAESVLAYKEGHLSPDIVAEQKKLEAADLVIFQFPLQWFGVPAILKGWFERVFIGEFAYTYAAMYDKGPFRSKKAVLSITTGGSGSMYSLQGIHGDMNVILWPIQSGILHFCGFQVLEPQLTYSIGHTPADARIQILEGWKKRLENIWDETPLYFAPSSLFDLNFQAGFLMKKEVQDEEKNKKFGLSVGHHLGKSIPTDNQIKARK
All different glucose-6-phophate concentration analytes are tabulated in the table below, and the environment of assay is maintained in pH 7.6 at 37° C.

For assay [2], the target named is T1, DT Diaphorase. Description: Oxygen-insensitive DTD-coupling enzyme assay for 3-hydroxybutyrate determination (3-hydroxybutyrate dehydrogenase, NAD+, DT Diaphorase). The protocol: as §1
All different 3-hydroxybutyrate concentration analytes are tabulated in the table below, and the environment of assay is maintained in pH 7.6 at 37° C.

Assay [3] addresses T1, DT Diaphorase. The assay is described as follows: Oxygen-insensitive DTD-coupling enzyme assay for ethanol determination (alcohol dehydrogenase, NAD+, DT Diaphorase). The protocol:
as §1
All different ethanol concentration analytes are tabulated in the table below, and the environment of assay is maintained in pH 7.6 at 37° C.

Each structure is given as a SMILES string.

As to `CC1=C(C)C(=O)C(C(C)(C)CC(=O)N(C)CCN(C)C(=O)Oc2ccc3c(C#N)c(-c4nc5ccccc5s4)c(=O)oc3c2)=C(C)C1=O` [BQC], the relative fluorescence intensity came out at 17.02 in assay [1] (glucose-6-phosphate 1 μM); 36.84 in assay [1] (glucose-6-phosphate 2 μM); 76.41 in assay [1] (glucose-6-phosphate 4 μM); 144.45 in assay [1] (glucose-6-phosphate 6 μM); 175.2 in assay [1] (glucose-6-phosphate 8 μM); 190.32 in assay [1] (glucose-6-phosphate 9 μM). Besides, the relative fluorescence intensity is reported as 207.94 in assay [1] (glucose-6-phosphate 10 μM); 16.17 in assay [2] (3-hydroxybutyrate 1 μM); 47.59 in assay [2] (3-hydroxybutyrate 2 μM); 83.74 in assay [2] (3-hydroxybutyrate 4 μM); 126.26 in assay [2] (3-hydroxybutyrate 6 μM); 144.93 in assay [2] (3-hydroxybutyrate 8 μM). The relative fluorescence intensity is given as 198.56 in assay [2] (3-hydroxybutyrate 10 μM); 10.79 in assay [3] (ethanol 0.2 μM); 26.18 in assay [3] (ethanol 0.6 μM); 35.23 in assay [3] (ethanol 0.8 μM); 39.42 in assay [3] (ethanol 1 μM); 77.06 in assay [3] (ethanol 2 μM).
